Results: PubChem BioAssay AID248 (DTP/NCI, 2004)
Several values for one entry are separate records, joined by “and”; a condition that tells them apart may be missing. Identical values can stand only once. Toxic doses and inconclusive results are not listed. No stated cut-off is given here; in the data, active means T/C of 150% or more; inactive means T/C below 125%. Peptide text beside a SMILES is read from it. * marks the point of attachment. Trt = c1ccc(C(c2ccccc2)(c2ccccc2)*)cc1; Boc = CC(C)(C)OC(=O)*

Test system: L1210 leukemia ip in BDF1 mice, survival T/C
Test: NCI In Vivo Anticancer Drug Screen. Data for tumor model L1210 Leukemia (intraperitoneal) in B6D2F1 (BDF1) mice
Conditions: endpoint: mean survival time, higher = longer survival
Procedure, shortened: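 Transplanted-tumor mice were given test agent; controls received vehicle only. Survival readings from the two groups were divided (treated over control).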

[1] = dose: 100.0 mg/kg/injection, schedule: Q01DX009 (ip), vehicle: saline with Tween-80
[2] = dose: 100.0 mg/kg/injection, schedule: Q04DX003 (ip), vehicle: saline sonified
[3] = dose: 200.0 mg/kg/injection, schedule: Q01DX009 (ip), vehicle: saline with Tween-80
[4] = dose: 200.0 mg/kg/injection, schedule: Q04DX003 (ip), vehicle: saline sonified
[5] = dose: 400.0 mg/kg/injection, schedule: Q01DX009 (ip), vehicle: saline with Tween-80
[6] = dose: 400.0 mg/kg/injection, schedule: Q04DX003 (ip), vehicle: saline sonified
[7] = dose: 100.0 mg/kg/injection, schedule: Q04DX002 (ip), vehicle: Klucel (hydroxypropylcellulose) (HPC)
[8] = dose: 100.0 mg/kg/injection, schedule: Q01DX001 (ip), vehicle: saline
[9] = dose: 200.0 mg/kg/injection, schedule: Q01DX001 (ip), vehicle: saline
[10] = dose: 400.0 mg/kg/injection, schedule: Q01DX001 (ip), vehicle: saline
[11] = dose: 100.0 mg/kg/injection, schedule: Q04DX003 (ip), vehicle: saline with Tween-80
[12] = dose: 200.0 mg/kg/injection, schedule: Q04DX003 (ip), vehicle: saline with Tween-80
[13] = dose: 400.0 mg/kg/injection, schedule: Q04DX003 (ip), vehicle: saline with Tween-80
[14] = dose: 100.0 mg/kg/injection, schedule: Q04DX003 (ip), vehicle: Klucel (hydroxypropylcellulose) (HPC)
[15] = dose: 200.0 mg/kg/injection, schedule: Q04DX003 (ip), vehicle: Klucel (hydroxypropylcellulose) (HPC)
[16] = dose: 400.0 mg/kg/injection, schedule: Q04DX003 (ip), vehicle: Klucel (hydroxypropylcellulose) (HPC)
[17] = dose: 50.0 mg/kg/injection, schedule: Q01DX009 (ip), vehicle: Klucel (hydroxypropylcellulose) (HPC)
[18] = dose: 100.0 mg/kg/injection, schedule: Q01DX009 (ip), vehicle: Klucel (hydroxypropylcellulose) (HPC)
[19] = dose: 200.0 mg/kg/injection, schedule: Q01DX009 (ip), vehicle: Klucel (hydroxypropylcellulose) (HPC)
[20] = dose: 100.0 mg/kg/injection, schedule: Q04DX003 (ip), vehicle: saline
[21] = dose: 200.0 mg/kg/injection, schedule: Q04DX003 (ip), vehicle: saline
[22] = dose: 400.0 mg/kg/injection, schedule: Q04DX003 (ip), vehicle: saline

Measured: T/C

COc1ccc(/C=N/N=C(\N)N[N+](=O)[O-])cc1OC
inactive: [1] 102 % of control | [2] 92 % of control | [3] 98 % of control | [4] 97 % of control | [5] 97 % of control | [6] 91 % of control

CC(=O)N(C)c1ccc(NC(=O)Nc2cc([N+](=O)[O-])ccc2C)cc1
inactive: [7] 106 % of control | dose: 200.0 mg/kg/injection, schedule: Q04DX002 (ip), vehicle: Klucel (hydroxypropylcellulose) (HPC) 108 % of control | dose: 400.0 mg/kg/injection, schedule: Q04DX002 (ip), vehicle: Klucel (hydroxypropylcellulose) (HPC) 101 % of control

BrC1CCCCC1Br (stereo unspecified)
inactive: [8] 98 % of control | [9] 101 % of control

CC(C)(C)COC(=O)C(C)(C)C
inactive: [8] 117 % of control | [9] 112 % of control | [10] 102 % of control

CC(C)(C)C(=O)CC(=O)C(C)(C)C.CC(C)(C)C(=O)CC(=O)C(C)(C)C.CC(C)(C)C(=O)CC(=O)C(C)(C)C.[Gd]
inactive: [11] 101 % of control | [12] 101 % of control | [13] 92 % of control

O=C(c1ccccc1)c1cccnc1
inactive: [11] 101 % of control | [12] 101 % of control | [13] 104 % of control

O=C1NC(=O)C(c2ccsc2)(c2cccs2)N1 (stereo unspecified)
inactive: dose: 100.0 mg/kg/injection, schedule: Q01DX001 (ip), vehicle: carboxymethylcellulose (CMC) 97 % of control | dose: 200.0 mg/kg/injection, schedule: Q01DX001 (ip), vehicle: carboxymethylcellulose (CMC) 89 % of control | dose: 400.0 mg/kg/injection, schedule: Q01DX001 (ip), vehicle: carboxymethylcellulose (CMC) 100 % of control

CCOC(=O)c1[nH]cnc1N
inactive: [8] 96 % of control | [9] 94 % of control | [10] 96 % of control

CC(c1ccccc1)C1N(c2ccccc2)CCN1c1ccccc1 (stereo unspecified)
inactive: [14] 94 % of control | [15] 100 % of control | [16] 102 % of control

CC(C)(Oc1ccc(Cl)cc1Cl)C(=O)O
inactive: dose: 100.0 mg/kg/injection, schedule: Q01DX009 (ip), vehicle: gum acacia 90 % of control

CC1(c2ccccc2)CC(c2ccccc2)=C(C#N)C(=O)N1 (stereo unspecified)
inactive: [8] 98 % of control | [9] 91 % of control | [10] 104 % of control

CC(C)(C)OC(=O)NC(CSC(c1ccccc1)(c1ccccc1)c1ccccc1)C(=O)NC(Cc1ccccc1)C(=O)NCC(=O)O (stereo not drawn) (Boc-Cys(Trt)-Phe-Gly-OH; configuration not given here)
inactive: dose: 75.0 mg/kg/injection, schedule: Q01DX001 (ip), vehicle: saline 93 % of control | dose: 150.0 mg/kg/injection, schedule: Q01DX001 (ip), vehicle: saline 91 % of control

O=[N+]([O-])c1ccc(N=C(Cl)c2cc(N3CCOCC3)ccn2)cc1
inactive: [8] 94 % of control | [9] 94 % of control | [10] 95 % of control

CCCCCCCCCCCCSc1nccnc1C
inactive: [17] 113 % of control | [18] 106 % of control | [19] 92 % of control

COc1ccc(CC2=NCCN2)cc1
inactive: dose: 25.0 mg/kg/injection, schedule: Q04DX003 (ip), vehicle: saline with Tween-80 91 % of control | dose: 50.0 mg/kg/injection, schedule: Q04DX003 (ip), vehicle: saline with Tween-80 93 % of control | [11] 101 % of control and 89 % of control

O=C(O)C[P+](c1ccccc1)(c1ccccc1)c1ccccc1
inactive: dose: 50.0 mg/kg/injection, schedule: Q01DX001 (ip), vehicle: saline 106 % of control | [8] 112 % of control

CCCCC(CCCC)c1ccccn1
inactive: [20] 97 % of control | [21] 97 % of control | [22] 93 % of control

O=C(NNC(=S)NC1CC2C=CC1C2)c1cccnc1 (stereo unspecified)
inactive: [18] 111 % of control | [19] 101 % of control

O/C(=C\C(=S)S)c1ccc(Cl)cc1
inactive: dose: 0.06 mg/kg/injection, schedule: Q01DX009 (ip), vehicle: saline with Tween-80 103 % of control | dose: 0.12 mg/kg/injection, schedule: Q01DX009 (ip), vehicle: saline with Tween-80 105 % of control | dose: 0.25 mg/kg/injection, schedule: Q01DX009 (ip), vehicle: saline with Tween-80 98 % of control | dose: 0.5 mg/kg/injection, schedule: Q01DX009 (ip), vehicle: saline with Tween-80 112 % of control and 120 % of control | dose: 1.0 mg/kg/injection, schedule: Q01DX009 (ip), vehicle: saline with Tween-80 102 % of control and 107 % of control | dose: 1.0 mg/kg/injection, schedule: Q04DX003 (ip), vehicle: saline with Tween-80 103 % of control | dose: 2.0 mg/kg/injection, schedule: Q01DX009 (ip), vehicle: saline with Tween-80 107 % of control | dose: 2.0 mg/kg/injection, schedule: Q04DX003 (ip), vehicle: saline with Tween-80 97 % of control | dose: 4.0 mg/kg/injection, schedule: Q04DX003 (ip), vehicle: saline with Tween-80 97 % of control | dose: 8.0 mg/kg/injection, schedule: Q04DX003 (ip), vehicle: saline with Tween-80 105 % of control

O=C1c2ccccc2C(=O)N1Cc1c(Cl)cccc1[N+](=O)[O-]
inactive: [18] 107 % of control | [19] 103 % of control | dose: 400.0 mg/kg/injection, schedule: Q01DX009 (ip), vehicle: Klucel (hydroxypropylcellulose) (HPC) 92 % of control

Nc1ccc(Sc2ccc(N)cc2)cc1
inactive: dose: 12.5 mg/kg/injection, schedule: Q04DX002 (ip), vehicle: Klucel (hydroxypropylcellulose) (HPC) 106 % of control | dose: 25.0 mg/kg/injection, schedule: Q04DX002 (ip), vehicle: Klucel (hydroxypropylcellulose) (HPC) 116 % of control | dose: 50.0 mg/kg/injection, schedule: Q04DX002 (ip), vehicle: Klucel (hydroxypropylcellulose) (HPC) 106 % of control | [7] 103 % of control

[O-][n+]1ccccc1/C=C\c1ccccc1
inactive: [8] 92 % of control | [9] 94 % of control

O=C1CCC(=O)N1C1c2ccccc2Oc2ccccc21
inactive: [20] 95 % of control | [21] 95 % of control | [22] 90 % of control

CSc1ccc([PH+](c2ccc(SC)cc2)c2ccc(SC)cc2)cc1.CSc1ccc([PH+](c2ccc(SC)cc2)c2ccc(SC)cc2)cc1.[Cl][Hg][Cl]
inactive: [17] 89 % of control | [18] 92 % of control and 98 % of control | [19] 94 % of control and 103 % of control

CC(C)C1NC(=O)C2CCCN2C1=O (stereo unspecified)
inactive: [2] 98 % of control | [4] 96 % of control | [6] 97 % of control

Cc1cc(=O)c2cc(-c3ccccc3)ccc2[nH]1
inactive: [20] 100 % of control | [21] 92 % of control | [22] 90 % of control

COC1=NS(=O)(=O)N=C(N(C)C)O1
inactive: dose: 100.0 mg/kg/injection, schedule: Q01DX001 (ip), vehicle: Klucel (hydroxypropylcellulose) (HPC) 105 % of control | [14] 96 % of control | dose: 200.0 mg/kg/injection, schedule: Q01DX001 (ip), vehicle: Klucel (hydroxypropylcellulose) (HPC) 105 % of control | [15] 96 % of control | dose: 400.0 mg/kg/injection, schedule: Q01DX001 (ip), vehicle: Klucel (hydroxypropylcellulose) (HPC) 103 % of control | [16] 97 % of control

CCCCCCC(C)Cl (stereo unspecified)
inactive: [1] 105 % of control | [3] 108 % of control | [5] 106 % of control
